Values quoted from earlier work as cited in patent US20040147581A1, “Method of using a Cox-2 inhibitor and a 5-HT1A receptor modulator as a combination therapy” (Pharmacia Corporation, priority 2002, published 2004).

System: fibroblast growth factor-induced corneal angiogenesis
Conditions: rats

Cc1ccc(-c2cc(C(F)(F)F)nn2-c2ccc(S(N)(=O)=O)cc2)cc1 [Celecoxib, celecoxib]
inhibition of fibroblast growth factor-induced corneal angiogenesis: potent inhibition
